Patent US20250154145A1, “OXER1 ANTAGONISTS AND USES THEREOF” (Fairhaven Pharmaceuticals Ins., priority 2021, published 2025)
pIC50: −log10 of the molar value.

Test system: neutrophils
Assay: Neutrophil calcium flux assay (5-OXO-ETE-stimulated, Indo-1 fluorescence)
Type: cell-based
Settings: 5-OXO-ETE-stimulated calcium flux
Description: After isolation, neutrophils were resuspended in PBS without calcium and Magnesium (PBS −/−) at a concentration of 5×10^6 cells/ml. 2ul of Indo-1 (1 mM) were added per ml of cells. After incubation at 37° C. for 30 minutes, cells were washed twice in PBS −/− and resuspended at 5×10^6 cells/ml in assay buffer (HBSS 1× with calcium and magnesium and […]). In a 96-well Black optical clear bottom plate 100 μL of neutrophil were dispensed to each well. After incubation at 37° C. for 5 minutes, 50 μL of assay buffer or 3× antagonist were added and incubated for 5 min in a Tecan Spark plate reader (Tecan, Morrisville, NC). Baseline was measured for 30 sec (wavelength setup: excitation: 331 nm and emission:410 nm). When baseline is stable, 50p of 5-OXO-ETE at 200 nM (4×) or HBSS was added to appropriate wells. Fluorescence was measured every 5 seconds for 30 cycles. Results are expressed as Net fluorescence (FLU minus Background and injection peak). All data were analyzed using GraphPad Prism version 9 for Windows (GraphPad, San Diego, CA).

Question: CC(CC(=O)O)CC(=O)c1c(CCCCCC(O)c2cccc(C#N)c2)n(C)c2ncc(Cl)cc12 (single isomer, unassigned) [Compound I-306] was tested. Which pIC50 did it give?
Answer: < 6.52

Question: How did the pIC50 turn out when CC(CC(=O)O)CC(=O)c1c(CCCCCC(O)c2cccc(C#N)c2)n(C)c2ncc(Cl)cc12 (single isomer, unassigned) [Compound I-307] was run?
Answer: > 7.00

Question: CC(CC(=O)O)CC(=O)c1c(CCCCCC(O)c2cccc(C#N)c2)n(C)c2ncc(Cl)cc12 (single isomer, unassigned) [Compound I-308] was tested. Which pIC50 did it give?
Answer: > 7.00

Question: With CC(CC(=O)O)CC(=O)c1c(CCCCCC(O)c2cccc(C#N)c2)n(C)c2ncc(Cl)cc12 (single isomer, unassigned) [Compound I-309] as the compound, how does the pIC50 read?
Answer: < 6.52

Question: CC(CC(=O)O)CC(=O)c1c(CCCCCC(O)c2cccc(C(=O)N(C)C)c2)n(C)c2ncc(C#N)cc12 (single isomer, unassigned) [Compound I-315] was tested. Which pIC50 did it give?
Answer: < 6.52

Question: How did the pIC50 turn out when CC(CC(=O)O)CC(=O)c1c(CCCCCC(O)c2cccc(C(=O)N(C)C)c2)n(C)c2ncc(C#N)cc12 (single isomer, unassigned) [Compound I-316] was run?
Answer: < 6.52

Question: How did the pIC50 turn out when CC(CC(=O)O)CC(=O)c1c(CCCCCC(O)c2cccc(C(=O)N(C)C)c2)n(C)c2ncc(C#N)cc12 (single isomer, unassigned) [Compound I-317] was run?
Answer: > 7.00

Question: With CC(CC(=O)O)CC(=O)c1c(CCCCCC(O)c2cccc(C(=O)N(C)C)c2)n(C)c2ncc(C#N)cc12 (single isomer, unassigned) [Compound I-318] as the compound, how does the pIC50 read?
Answer: 6.52 to 7.00

Same assay, conditions: Neutrophil, 5-OXO-ETE-stimulated calcium flux

Question: C[C@H](CC(=O)c1c(CCCCOCc2ccccc2)n(C)c2ncc(C#N)cc12)Cc1nnn[nH]1 (stereo in doubt) [Compound I-360] was tested. Which pIC50 did it give?
Answer: < 6.52

Question: With CCCCCCc1cc2ccc(Cl)cc2n1C(=O)C[C@H](C)CC(=O)O [Compound I-12] as the compound, how does the pIC50 read?
Answer: < 6.52

Question: With C[C@@H](CC(=O)NS(C)(=O)=O)CC(=O)c1c(CCCCCCc2cccc(Cl)c2)n(C)c2ccc(Cl)cc12 [Compound I-15] as the compound, how does the pIC50 read?
Answer: < 6.52

Question: C[C@@H](CC(=O)NO)CC(=O)c1c(CCCCCCc2cccc(Cl)c2)n(C)c2ccc(Cl)cc12 [Compound I-18] was tested. Which pIC50 did it give?
Answer: < 6.52

Question: C[C@H](CC(=O)O)CC(=O)c1c(CCCCCCc2cccc(Cl)c2)n(C)c2ncc(Cl)cc12 [Compound I-24] was tested. Which pIC50 did it give?
Answer: < 6.52

Question: How did the pIC50 turn out when C[C@H](CC(=O)O)CC(=O)c1c(CCCCCCc2cccnc2)n(C)c2ccc(Cl)cc12 [Compound I-53] was run?
Answer: > 7.00

Question: C[C@H](CC(=O)O)CC(=O)c1c(CCCCCCc2ccccn2)n(C)c2ccc(Cl)cc12 [Compound I-54] was tested. Which pIC50 did it give?
Answer: 6.52 to 7.00

Question: C[C@H](CC(=O)O)CC(=O)c1c(CCCCCCc2ccncc2)n(C)c2ccc(Cl)cc12 [Compound I-55] was tested. Which pIC50 did it give?
Answer: > 7.00

Question: How did the pIC50 turn out when CC(CC(=O)O)CC(=O)c1c(CCCCCCc2cccc(Cl)c2)n(C)c2ccc(C(F)(F)F)cc12 (centres unmarked) [Compound I-58] was run?
Answer: > 7.00

Question: With C[C@H](CC(=O)O)CC(=O)c1c(CCCOCCc2cccc(Cl)c2)n(C)c2ccc(Cl)cc12 [Compound I-61] as the compound, how does the pIC50 read?
Answer: > 7.00

Question: C[C@H](CC(=O)O)CC(=O)c1c(CCOCCCc2cccc(Cl)c2)n(C)c2ccc(Cl)cc12 [Compound I-62] was tested. Which pIC50 did it give?
Answer: > 7.00

Question: With C[C@H](CC(=O)O)CC(=O)c1c(COCCCCc2cccc(Cl)c2)n(C)c2ccc(Cl)cc12 [Compound I-63] as the compound, how does the pIC50 read?
Answer: > 7.00

Question: C[C@H](CC(=O)O)CC(=O)c1c(CCOCCOc2cccc(Cl)c2)n(C)c2ccc(Cl)cc12 [Compound I-64] was tested. Which pIC50 did it give?
Answer: 6.52 to 7.00

Question: With CC(CC(=O)O)CC(=O)c1c(COCCOCc2cccc(Cl)c2)n(C)c2ccc(Cl)cc12 (centres unmarked) [Compound I-65] as the compound, how does the pIC50 read?
Answer: 6.52 to 7.00

Question: CC(C)CCCCc1c(C(=O)C[C@H](C)CC(=O)O)c2cc(Cl)ccc2n1C [Compound I-70] was tested. Which pIC50 did it give?
Answer: 6.52 to 7.00

Question: With CC(C)OCCCc1c(C(=O)C[C@H](C)CC(=O)O)c2cc(Cl)ccc2n1C [Compound I-71] as the compound, how does the pIC50 read?
Answer: < 6.52

Question: CC(C)COCCc1c(C(=O)C[C@H](C)CC(=O)O)c2cc(Cl)ccc2n1C [Compound I-72] was tested. Which pIC50 did it give?
Answer: < 6.52

Question: With C[C@H](CC(=O)O)CC(=O)c1c(CCCCOCC2(C(F)(F)F)CC2)n(C)c2ccc(Cl)cc12 [Compound I-74] as the compound, how does the pIC50 read?
Answer: < 6.52

Question: C[C@H](CC(=O)O)CC(=O)c1c(CCCCCNc2cccc(Cl)c2)n(C)c2ccc(Cl)cc12 [Compound I-79] was tested. Which pIC50 did it give?
Answer: > 7.00

Question: C[C@H](CC(=O)O)CC(=O)c1c(CCCCC(=O)Nc2cccc(Cl)c2)n(C)c2ccc(Cl)cc12 [Compound I-80] was tested. Which pIC50 did it give?
Answer: < 6.52

Question: How did the pIC50 turn out when C[C@H](CC(=O)O)CC(=O)c1c(CCCCCCc2cnccn2)n(C)c2ccc(Cl)cc12 [Compound I-81] was run?
Answer: 6.52 to 7.00

Question: C[C@H](CC(=O)O)CC(=O)c1c(CCCCCNc2ncccn2)n(C)c2ccc(Cl)cc12 [Compound I-82] was tested. Which pIC50 did it give?
Answer: 6.52 to 7.00

Question: With C[C@@H](CC(=O)c1c(CCCCCCc2cccc(Cl)c2)n(C)c2ncc(Cl)cc12)Cc1nnn[nH]1 [Compound I-84] as the compound, how does the pIC50 read?
Answer: > 7.00

Question: COc1ccc2c(c1)c(C(=O)C[C@H](C)CC(=O)O)c(CCCCCCc1cccc(Cl)c1)n2C [Compound I-96] was tested. Which pIC50 did it give?
Answer: > 7.00

Question: With C[C@H](CC(=O)O)CC(=O)c1c(CCCCCCc2cccc(Cl)c2)n(C)c2ccc(OC(F)(F)F)cc12 [Compound I-97] as the compound, how does the pIC50 read?
Answer: > 7.00

Question: With C[C@H](CC(=O)O)CC(=O)c1c(CCCCOCc2ccccc2)n(C)c2ncc(Cl)cc12 [Compound I-99] as the compound, how does the pIC50 read?
Answer: 6.52 to 7.00

Question: How did the pIC50 turn out when C[C@H](CC(=O)O)CC(=O)c1c(CCCCOCc2cccc(F)c2)n(C)c2ncc(Cl)cc12 [Compound I-100] was run?
Answer: 6.52 to 7.00

Question: C[C@H](CC(=O)O)CC(=O)c1c(CCCCOCc2ccccc2)n(C)c2ncccc12 [Compound I-101] was tested. Which pIC50 did it give?
Answer: < 6.52

Question: With COc1cnc2c(c1)c(C(=O)CC(C)CC(=O)O)c(CCCCOCc1ccccc1)n2C (centres unmarked) [Compound I-103] as the compound, how does the pIC50 read?
Answer: < 6.52

Question: With C[C@@H](CC(=O)O)CC(=O)c1c(CCCCOCc2ccccc2)n(C)c2ncc(C#N)cc12 [Compound I-106] as the compound, how does the pIC50 read?
Answer: < 6.52

Question: C[C@H](CC(=O)O)CC(=O)c1c(CCCCC[C@@H](O)c2cccc(Cl)c2)n(C)c2ncc(Cl)cc12 [Compound I-107] was tested. Which pIC50 did it give?
Answer: > 7.00

Question: With C[C@H](CC(=O)O)CC(=O)c1c(CCCCOCC23CC(C#N)(C2)C3)n(C)c2ccc(Cl)cc12 [Compound I-108] as the compound, how does the pIC50 read?
Answer: 6.52 to 7.00

Question: C[C@H](CC(=O)O)CC(=O)c1c(CCCCC[C@H](O)c2cccc(Cl)c2)n(C)c2ncc(Cl)cc12 [Compound I-110] was tested. Which pIC50 did it give?
Answer: > 7.00

Question: How did the pIC50 turn out when CC(CC(=O)O)CC(=O)c1c(CCCCCCC#CCC(F)(F)F)n(C)c2ccc(Cl)cc12 (centres unmarked) [Compound I-111] was run?
Answer: 6.52 to 7.00

Question: How did the pIC50 turn out when C[C@H](CC(=O)O)CC(=O)c1c(CCCCCCC#CC(C)(C)C)n(C)c2ccc(Cl)cc12 [Compound I-112] was run?
Answer: > 7.00

Question: C[C@H](CC(=O)O)CC(=O)c1c(CCCCCCC#CC2CCC2)n(C)c2ccc(Cl)cc12 [Compound I-113] was tested. Which pIC50 did it give?
Answer: < 6.52

Question: CC(C)C#CCCCCCc1c(C(=O)C[C@H](C)CC(=O)O)c2cc(Cl)ccc2n1C [Compound I-114] was tested. Which pIC50 did it give?
Answer: < 6.52

Question: CCC#CCCCCCCc1c(C(=O)C[C@H](C)CC(=O)O)c2cc(Cl)ccc2n1C [Compound I-116] was tested. Which pIC50 did it give?
Answer: > 7.00

Question: How did the pIC50 turn out when C[C@H](CC(=O)O)CC(=O)c1c(CCCCC#Cc2ccccc2)n(C)c2ccc(Cl)cc12 [Compound I-117] was run?
Answer: > 7.00

Question: How did the pIC50 turn out when Cn1c(CCCCCCc2cccc(Cl)c2)c(C(=O)N2CC[C@H](C(=O)O)C2)c2cc(Cl)ccc21 [Compound I-118] was run?
Answer: > 7.00

Question: How did the pIC50 turn out when Cn1c(CCCCCCc2cccc(Cl)c2)c(C(=O)N2CCC[C@@H]2CC(=O)O)c2cc(Cl)ccc21 [Compound I-119] was run?
Answer: < 6.52

Question: With Cn1c(CCCCCCc2cccc(Cl)c2)c(C(=O)N2CC[C@@H](C(=O)O)C2)c2cc(Cl)ccc21 [Compound I-120] as the compound, how does the pIC50 read?
Answer: 6.52 to 7.00
